From publication PMC11161644, “An effective and rapidly degradable disinfectant from disinfection byproducts” (Nature Communications, 2024)
Where “and” joins values, the source holds several entries; their conditions need not be identical. Identical values can stand only once.

Legend:
[1] = Degradation of 2,6-DCQ in phosphate-buffered ultrapure water (pH 8.2) in darkness; assay type: physicochemical
Experimental: For the stability of 2,6-DCQ in aquatic environments, we used seawater because seawater
investigate the effect of chloride ions on the stability of 2,6-DCQ, we have conducted the
degradation experiments of 2,6-DCQ in seawater (pH 8.2) and ultrapure water (added with 4 mM
phosphate buffer at pH 8.2) in darkness.
Lines 185–188 in the revision-marked manuscript, “We also investigated the effect of the high
chloride level in seawater on the degradation of 2,6-DCQ in darkness.

P. dumerilii embryos = assay: Developmental toxicity (EC50) of OH-DCQ and 2,6-DCQ to P. dumerilii embryos; assay type: in vivo, Platynereis dumerilii
Experimental: The third aliquot was subjected to the developmental toxicity assay with P. dumerilii embryos. The aliquot was dissolved in 10 mL of seawater and adjusted to pH 8.2. The embryos at 12-h postfertilization were exposed to different levels of OH-DCQ for 12 h. By 24-h postfertilization, normally and abnormally developed embryos were counted using an inverted stereomicroscope. Based on the percentage of normally developed embryos, an exposure−response curve was generated. The median effective concentration (EC50) was determined using SigmaPlot 12 software. The developmental toxicity of 2,6-DCQ was also evaluated for comparison. The toxicity bioassay was conducted in duplicate.

rat = conditions: oral; cited from earlier work
[2] = UPLC/ESI-tqMS time profile of 2,6-DCQ and its degradation products in simulated seawater (pH 8.2, darkness); OH-DCQ formation; conditions: for Concentration: 2,6-DCQ degradation / OH-DCQ formation; for Peak area: 2,6-DCQ degradation, pH 8.2, darkness
Experimental: A Waters UPLC system coupled with ESI-tqMS was used to characterize the degradation products of 2,6-DCQ. The UPLC separation was performed using an HSS T3 column (100 × 2.1 mm, 1.8 μm particle size, Waters) with a column temperature of 35 °C. A gradient eluent of methanol–water was applied at a flow rate of 0.4 mL min^−1. The gradient program was set as follows: methanol/water (v/v) ratio changed linearly from 5/95 to 90/10 in the first 8 min and then returned to 5/95 during 8.0‒8.1 min, which was held for 2.9 min for re-equilibration. The ESI-tqMS was set as follows: ESI negative mode, capillary voltage 2.8 kV, cone voltage 10–50 V (depending on analytes), cone gas flow 50 L h^−1, source temperature 120 °C, desolvation temperature 400 °C, desolvation gas flow 800 L h^−1, collision energy 15–50 eV (depending on analytes), collision gas (argon) flow 0.25 mL min^−1, and mass resolution 15 (1-unit resolution).
The degradation of 2,6-DCQ in seawater was simulated by adding 10 mg L^−1 2,6-DCQ to 50 mL ultrapure water, which was adjusted to pH 8.2 with 5 mM sodium carbonate (to simulate the alkalinity in seawater and also to be compatible with the subsequent UPLC/ESI-tqMS analysis). The sample was kept in darkness for 0–24 h, during which the pH of the sample was maintained at 8.1 ± 0.1. At a designated reaction time, 7.5 μL of the sample was injected into the UPLC system. For a nonhalogenated degradation product, the selected ion recording (SIR) mode with a dwell time of 0.05 s was adopted to obtain the retention time. For halogenated degradation products, the multiple reaction monitoring mode with a dwell time of 0.05 s was used to obtain the retention time and the isotopic abundance ratio. To investigate the time-dependent profile of 2,6-DCQ and its degradation products, the peak area of each compound was determined using the SIR mode in the UPLC/ESI-tqMS analysis.
The second aliquot was subjected to analysis of total organic halogen to quantify the collected OH-DCQ. The determination of total organic halogen was based on Standard Method 5320B[52], with modifications of using off-line ion chromatography for halide detection. Briefly, the aliquot was dissolved in 100 mL ultrapure water and acidified to pH 2 with concentrated nitric acid[52] prior to adsorption onto pre-packed activated carbon columns (Mitsubishi). A three-channel adsorption module (TXA03C, Mitsubishi Chemical Analytech) was used for adsorption. An AQF-100 automatic quick furnace (Mitsubishi Chemical Analytech) was used for pyrolysis. During the pyrolysis process, the chlorine atoms in OH-DCQ were converted to chloride. The chloride ion concentration was determined using an ICS-3000 ion chromatography system (Dionex). 2,6-DCQ was used as a standard compound for measuring total organic halogen to determine the recovery of the analysis. The total organic halogen analysis was conducted in duplicate.

aquatic invertebrates = test system: aquatic invertebrates; set-up: method as in earlier work; conditions: USEPA; cited from earlier work
freshwater fish = test system: freshwater fish; set-up: method as in earlier work; conditions: USEPA; cited from earlier work

**Q.** Which “Ln (C/C0)” value ([1]; pH 8.2 in phosphate-buffered water, darkness, 0 h) does the source give for `O=C1C=C(Cl)C(=O)C(Cl)=C1` [2,6-DCQ, 2,6-dichlorobenzoquinone] here?
**A.** 0

**Q.** And the “Effect of chloride ions on degradation” value ([1]; seawater vs phosphate-buffered water, pH 8.2, darkness)?
**A.** no discernible effect

**Q.** And the Normal development (P. dumerilii embryos; 2,6-DCQ concentration 0.2 mg L-1)?
**A.** 80.7017% and 79.2079%

**Q.** What about the Normal development (P. dumerilii embryos; 2,6-DCQ concentration 0.3 mg L-1) of the same molecule?
**A.** 76.7442% and 82.4428%

**Q.** What about the Normal development (P. dumerilii embryos; 2,6-DCQ concentration 0.4 mg L-1) of the same molecule?
**A.** 80% and 80.822%

**Q.** What about the Normal development (P. dumerilii embryos; 2,6-DCQ concentration 0.5 mg L-1) of the same molecule?
**A.** 62.0155% and 62.3077%

**Q.** What about the Normal development (P. dumerilii embryos; 2,6-DCQ concentration 0.6 mg L-1) of the same molecule?
**A.** 42.1875% and 37.2727%

**Q.** What about the Normal development (P. dumerilii embryos; 2,6-DCQ concentration 0.75 mg L-1) of the same molecule?
**A.** 16.2963% and 20.7921%

**Q.** And the Normal development (P. dumerilii embryos; 2,6-DCQ concentration 1 mg L-1)?
**A.** 7.407% and 6.667%

**Q.** What about the “Developmental toxicity relative to OH-DCQ (times higher)” value (P. dumerilii embryos; P. dumerilii embryos) of the same molecule?
**A.** 149 times

**Q.** And the LD10 (rat)?
**A.** 500 mg/kg

**Q.** And the Concentration ([2]; degradation time 0 h)?
**A.** 10 mg/L

**Q.** And the Concentration ([2]; degradation time 0.25 h)?
**A.** 9.325 mg/L

**Q.** What about the Concentration ([2]; degradation time 0.5 h) of the same molecule?
**A.** 7.7507 mg/L

**Q.** And the Concentration ([2]; degradation time 0.75 h)?
**A.** 7.678 mg/L

**Q.** What about the Concentration ([2]; degradation time 1 h) of the same molecule?
**A.** 6.527 mg/L

**Q.** And the Concentration ([2]; degradation time 1.25 h)?
**A.** 5.831 mg/L

**Q.** What about the Concentration ([2]; degradation time 1.5 h) of the same molecule?
**A.** 4.783 mg/L

**Q.** What about the Concentration ([2]; degradation time 1.75 h) of the same molecule?
**A.** 4.325 mg/L

**Q.** What about the Concentration ([2]; degradation time 2 h) of the same molecule?
**A.** 3.926 mg/L

**Q.** What about the Concentration ([2]; degradation time 2.25 h) of the same molecule?
**A.** 3.481 mg/L

**Q.** What about the Concentration ([2]; degradation time 2.5 h) of the same molecule?
**A.** 3.0344 mg/L

**Q.** What about the Concentration ([2]; degradation time 2.75 h) of the same molecule?
**A.** 2.761 mg/L

**Q.** What about the Concentration ([2]; degradation time 3 h) of the same molecule?
**A.** 2.333 mg/L

**Q.** What about the Concentration ([2]; degradation time 3.25 h) of the same molecule?
**A.** 2.12 mg/L

**Q.** What about the Concentration ([2]; degradation time 3.5 h) of the same molecule?
**A.** 1.754 mg/L

**Q.** And the Concentration ([2]; degradation time 3.75 h)?
**A.** 1.608 mg/L

**Q.** What about the Concentration ([2]; degradation time 4 h) of the same molecule?
**A.** 1.408 mg/L

**Q.** What about the Concentration ([2]; degradation time 4.5 h) of the same molecule?
**A.** 0.9867 mg/L

**Q.** What about the Concentration ([2]; degradation time 5 h) of the same molecule?
**A.** 0.7051 mg/L

**Q.** And the Concentration ([2]; degradation time 5.5 h)?
**A.** 0.5833 mg/L

**Q.** What about the Concentration ([2]; degradation time 6 h) of the same molecule?
**A.** 0.424 mg/L

**Q.** And the Concentration ([2]; degradation time 6.5 h)?
**A.** 0.2875 mg/L

**Q.** And the Concentration ([2]; degradation time 7 h)?
**A.** 0.2316 mg/L

**Q.** What about the Concentration ([2]; degradation time 7.5 h) of the same molecule?
**A.** 0.1796 mg/L

**Q.** What about the Concentration ([2]; degradation time 8 h) of the same molecule?
**A.** 0.1533 mg/L

**Q.** What about the Concentration ([2]; degradation time 10 h) of the same molecule?
**A.** 0.05498 mg/L

**Q.** And the Concentration ([2]; degradation time 12 h)?
**A.** 0.02477 mg/L

**Q.** And the Concentration ([2]; degradation time 14 h)?
**A.** 0.01436 mg/L

**Q.** What about the Concentration ([2]; degradation time 16 h) of the same molecule?
**A.** 0 mg/L

**Q.** And the Concentration ([2]; degradation time 18 h)?
**A.** 0 mg/L

**Q.** And the Concentration ([2]; degradation time 20 h)?
**A.** 0 mg/L

**Q.** And the Concentration ([2]; degradation time 24 h)?
**A.** 0 mg/L

**Q.** And the Peak area ([2]; 0 h)?
**A.** 56527.8

**Q.** And the Peak area ([2]; 0.25 h)?
**A.** 52714.2

**Q.** What about the Peak area ([2]; 0.5 h) of the same molecule?
**A.** 43813

**Q.** And the Peak area ([2]; 0.75 h)?
**A.** 43401.4

**Q.** And the Peak area ([2]; 1 h)?
**A.** 36894.2

**Q.** What about the Peak area ([2]; 1.25 h) of the same molecule?
**A.** 32960.2

**Q.** And the Peak area ([2]; 1.5 h)?
**A.** 27035.4

**Q.** What about the Peak area ([2]; 1.75 h) of the same molecule?
**A.** 24446.8

**Q.** What about the Peak area ([2]; 2 h) of the same molecule?
**A.** 22195.6

**Q.** What about the Peak area ([2]; 2.25 h) of the same molecule?
**A.** 19679.8

**Q.** What about the Peak area ([2]; 2.5 h) of the same molecule?
**A.** 17152.8

**Q.** And the Peak area ([2]; 2.75 h)?
**A.** 15608.6

**Q.** And the Peak area ([2]; 3 h)?
**A.** 13185.2

**Q.** And the Peak area ([2]; 3.25 h)?
**A.** 11984

**Q.** And the Peak area ([2]; 3.5 h)?
**A.** 9914.8

**Q.** What about the Peak area ([2]; 3.75 h) of the same molecule?
**A.** 9088.8

**Q.** And the Peak area ([2]; 4 h)?
**A.** 7959

**Q.** And the Peak area ([2]; 4.5 h)?
**A.** 5577.6

**Q.** What about the Peak area ([2]; 5 h) of the same molecule?
**A.** 3985.8

**Q.** And the Peak area ([2]; 5.5 h)?
**A.** 3297

**Q.** What about the Peak area ([2]; 6 h) of the same molecule?
**A.** 2396.8

**Q.** What about the Peak area ([2]; 6.5 h) of the same molecule?
**A.** 1625.4

**Q.** What about the Peak area ([2]; 7 h) of the same molecule?
**A.** 1309

**Q.** What about the Peak area ([2]; 7.5 h) of the same molecule?
**A.** 1015

**Q.** And the Peak area ([2]; 8 h)?
**A.** 866.6

**Q.** And the Peak area ([2]; 10 h)?
**A.** 310.8

**Q.** What about the Peak area ([2]; 12 h) of the same molecule?
**A.** 140

**Q.** What about the Peak area ([2]; 14 h) of the same molecule?
**A.** 81.2

**Q.** What about the Peak area ([2]; 16 h) of the same molecule?
**A.** 0

**Q.** What about the Peak area ([2]; 18 h) of the same molecule?
**A.** 0

**Q.** And the Peak area ([2]; 20 h)?
**A.** 0

**Q.** And the Peak area ([2]; 24 h)?
**A.** 0

**Q.** What does the source list for `Cc1cc(O)cc(C)c1Cl` [PCMX, para-chloro-meta-xylenol, reference compound]?
**A.** Toxicity rating to aquatic invertebrates (aquatic invertebrates): moderately toxic; Toxicity rating to freshwater fish (freshwater fish): highly toxic; LD50 (rat): 3830 mg/kg
